In US20040127492A1 (Pharmacia Corporation, priority 2002, published 2004):
Where two headings read alike, the source gives them in different places. One block for each compound: values may come before it.

Assays:
MAPKAPK2 (MK-2) = MAPKAPK2 (MK-2) (Homo sapiens, UniProt P49137); assay: Determination of MK-2 IC50 (HSP-peptide phosphorylation, anion exchange resin capture assay); assay type: biochemical
Outline: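 Radiometric peptide assay: 15 nM p38α-activated MK-2, HSP-peptide, 0.03 mM ATP with [γ33P]ATP, 2% DMSO, pH 7.5, 30° C for 30 min; unreacted ATP removed on AG 1×8 resin before counting. Six concentrations in ten-fold steps, each in triplicate, gave IC50 in μM.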

MK-3 = MK-3 (Homo sapiens, UniProt Q16644); assay: MK-3 inhibition IC50 (similar method to MK-2, with appropriate modifications); assay type: biochemical; conditions: read-out: MK-3 Avg. IC50
MK-3, sequence (Q16644 whole entry, species assumed): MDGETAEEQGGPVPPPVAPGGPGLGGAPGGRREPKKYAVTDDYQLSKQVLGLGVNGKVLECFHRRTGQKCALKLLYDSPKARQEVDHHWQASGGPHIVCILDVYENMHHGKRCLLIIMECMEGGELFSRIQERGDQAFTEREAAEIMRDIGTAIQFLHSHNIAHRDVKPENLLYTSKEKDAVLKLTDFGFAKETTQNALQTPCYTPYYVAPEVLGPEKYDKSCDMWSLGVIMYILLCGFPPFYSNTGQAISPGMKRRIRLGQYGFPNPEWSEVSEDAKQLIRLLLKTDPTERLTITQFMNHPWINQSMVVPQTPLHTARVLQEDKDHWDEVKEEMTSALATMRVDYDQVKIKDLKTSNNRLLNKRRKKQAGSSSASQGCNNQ
Protocol: In practice, the selectivity of a cyclic pyrazole MK-2 inhibitor varies depending upon the condition under which the test is performed and on the inhibitors being tested. However, for the purposes of this specification, the selectivity of a cyclic pyrazole MK-2 inhibitor inhibitor can be measured as a ratio of the in vitro or in vivo IC50 value for inhibition of MK-3, divided by the IC50 value for inhibition of MK-2 (IC50 MK-3/IC50 MK-2). […] The MK-2 or MK-3 inhibiting activity of any of the compounds described herein can be determined by any one of several methods that are well known to those having skill in the art of enzyme activity testing. […] A similar method, with appropriate modifications, Can be used to measure MK-3 inhibitory activity. In addition, the efficacy of one of the present MK-2 inhibiting compounds in therapeutic applications can be determined by testing for inhibition of TNFα production in cell culture and in animal model assays.

[1] = Table 5, other cyclic pyrazole MK-2 inhibiting compounds, read-out: MK-2 Avg. IC50
[2] = Table 5, other cyclic pyrazole MK-2 inhibiting compounds
[3] = Table 2, pyrazolylpyrazole MK-2 inhibitors, read-out: MK-2 Avg. IC50
[4] = Table 2, pyrazolylpyrazole MK-2 inhibitors
[5] = Table 1, phenoxypyrazole MK-2 inhibitors, read-out: MK-2 Avg, IC50
[6] = Table 1, phenoxypyrazole MK-2 inhibitors

MAPKAPK2 (MK-2), sequence (P49137 whole entry, species assumed): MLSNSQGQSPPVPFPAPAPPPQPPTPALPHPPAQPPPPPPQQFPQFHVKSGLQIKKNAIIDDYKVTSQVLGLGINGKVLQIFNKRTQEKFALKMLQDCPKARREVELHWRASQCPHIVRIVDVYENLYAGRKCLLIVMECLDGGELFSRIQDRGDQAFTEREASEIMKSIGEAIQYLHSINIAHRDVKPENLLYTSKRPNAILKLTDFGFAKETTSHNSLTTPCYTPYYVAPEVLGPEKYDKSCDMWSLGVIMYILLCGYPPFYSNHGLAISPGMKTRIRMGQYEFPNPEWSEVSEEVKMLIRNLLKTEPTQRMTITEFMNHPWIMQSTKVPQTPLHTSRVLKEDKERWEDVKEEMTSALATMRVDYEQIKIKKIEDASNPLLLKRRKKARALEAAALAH

Structure (SMILES): O=C(O)c1c2c(nn1CCCNCCc1cccs1)-c1ccncc1CC2 [Example 41]
IC50 (MAPKAPK2 (MK-2); read-out: MK-2 Avg. IC50): 0.269 µM
IC50 (MK-3): 15.7 µM

Structure (SMILES): O=C(O)c1c2c(nn1CCCNCCc1ccc(/C=C/c3ccccc3)cc1)-c1cc(/C=C/c3ccccc3)ncc1CC2 [Example 35]
IC50 (MAPKAPK2 (MK-2); [1]): 0.528 µM
IC50 (MK-3; [2]): > 20 µM

Structure (SMILES): O=C(O)c1c2c(nn1CCCNCCc1ccc(-c3ccccc3)cc1)-c1ccncc1CC2 [Example 44]
IC50 (MAPKAPK2 (MK-2); read-out: MK-2 Avg. IC50): 0.316 µM
IC50 (MK-3): 5.01 µM

Structure (SMILES): NC(=O)c1nn(Cc2ccccc2)c2c1CCc1[nH]ncc1-2 [Example 34]
IC50 (MAPKAPK2 (MK-2); [3]): 120 µM
IC50 (MK-3; [4]): ≥ 200 µM

Structure (SMILES): O=C(O)c1c2c(nn1CCCNCCc1ccc(Br)cc1)-c1cc(/C=C/c3ccccc3)ncc1CC2 [Example 34]
IC50 (MAPKAPK2 (MK-2); [1]): 0.28 µM
IC50 (MK-3; [2]): 2.02 µM

Structure (SMILES): CNc1ccc(-c2cc3c(cc2O)CCc2c-3nn(CCCN)c2C(=O)O)cc1 [Example 21]
IC50 (MAPKAPK2 (MK-2); [5]): 17.7 µM
IC50 (MK-3; [6]): > 200 µM

Structure (SMILES): O=C1NCCCn2nc3c(c21)CCc1cnc(-c2cnc4ccccc4c2)cc1-3 [Example 30]
IC50 (MAPKAPK2 (MK-2); read-out: MK-2 Avg. IC50): 0.171 µM
IC50 (MK-3): 11.9 µM

Structure (SMILES): O=C(O)c1c2c(nn1CCCNCCc1ccc(-c3ccoc3)cc1)-c1ccncc1CC2 [Example 23]
IC50 (MAPKAPK2 (MK-2); read-out: MK-2 Avg. IC50): 0.126 µM
IC50 (MK-3): 2.62 µM

Structure (SMILES): NCCCn1nc2c(c1C(=O)O)CCc1cnc(-c3cccc(O)c3)cc1-2 [Example 4]
IC50 (MAPKAPK2 (MK-2); read-out: MK-2 Avg. IC50): 0.0194 µM
IC50 (MK-3): 0.55 µM

Structure (SMILES): CCOC(=O)c1c2c(nn1CCCN)-c1c(SCc3ccccc3)n[nH]c1CC2 [Example 44]
IC50 (MAPKAPK2 (MK-2); [3]): 181 µM
IC50 (MK-3; [4]): ≥ 200 µM

Structure (SMILES): NCCCn1nc2c(c1C(=O)O)CCc1cc(O)c(-c3ccc(F)c(F)c3)cc1-2 [Example 17]
IC50 (MAPKAPK2 (MK-2); [5]): 14.2 µM
IC50 (MK-3; [6]): 167 µM

Structure (SMILES): O=C(O)c1c2c(nn1CCCNCCc1ccc(Br)cc1)-c1cn[nH]c1CC2 [Example 3]
IC50 (MAPKAPK2 (MK-2); [3]): 2.23 µM
IC50 (MK-3; [4]): 20.8 µM

Structure (SMILES): C=CCC1Cc2c(C(=O)O)n[nH]c2-c2ccc(O)cc21 (stereo not shown) [Example 60]
IC50 (MAPKAPK2 (MK-2); [5]): 148 µM
IC50 (MK-3; [6]): > 200 µM

Structure (SMILES): O=C1NCCn2nc3c(c21)CCc1cnc(/C=C/c2ccc4c(c2)OCO4)cc1-3 [Example 4]
IC50 (MAPKAPK2 (MK-2); [1]): 0.223 µM
IC50 (MK-3; [2]): > 20 µM

Structure (SMILES): COc1ccc2c(c1)CCc1c(C(=O)O)nn(-c3ccc(S(C)(=O)=O)cc3)c1-2 [Example 165]
IC50 (MAPKAPK2 (MK-2); [5]): > 200 µM
IC50 (MK-3; [6]): > 200 µM

Structure (SMILES): NC(=O)c1nn(-c2ccccc2)c2c1CCc1[nH]ncc1-2 [Example 29]
IC50 (MAPKAPK2 (MK-2); [3]): 112 µM
IC50 (MK-3; [4]): ≥ 200 µM

Structure (SMILES): COc1ccc2c(c1)CCc1c(C(N)=O)nn(-c3ccc(S(N)(=O)=O)cc3)c1-2 [Example 179]
IC50 (MAPKAPK2 (MK-2); [5]): > 200 µM
IC50 (MK-3; [6]): > 200 µM

Structure (SMILES): CC(C)(C)OC(=O)NCCn1nc2c(c1C(=O)O)CCc1c-2cnn1C(c1ccccc1)(c1ccccc1)c1ccccc1 [Example 38]
IC50 (MAPKAPK2 (MK-2); [3]): 139 µM
IC50 (MK-3; [4]): ≥ 200 µM

Structure (SMILES): CC1Cc2cc(O)ccc2-c2n[nH]c(C(=O)O)c21 (stereo not shown) [Example 59]
IC50 (MAPKAPK2 (MK-2); [5]): 148 µM
IC50 (MK-3; [6]): > 200 µM

Structure (SMILES): N#Cc1cccc(-c2cc3c(cn2)CCc2c-3nn(CCCN)c2C(=O)O)c1 [Example 8]
IC50 (MAPKAPK2 (MK-2); read-out: MK-2 Avg. IC50): 0.0302 µM
IC50 (MK-3): 0.226 µM

Next, values leading:

IC50 (MAPKAPK2 (MK-2); [3]): ≥ 200 µM
IC50 (MK-3; [4]): ≥ 200 µM
Structure (SMILES): NC(=O)c1[nH]nc2c1CCc1c-2cnn1COCc1ccccc1 [Example 68]

IC50 (MAPKAPK2 (MK-2); [5]): 176 µM
IC50 (MK-3; [6]): > 200 µM
Structure (SMILES): CNC(=O)c1[nH]nc2c1CCc1cc(O)ccc1-2 [Example 69]

IC50 (MAPKAPK2 (MK-2); [5]): > 200 µM
IC50 (MK-3; [6]): > 200 µM
Structure (SMILES): COC(=O)c1[nH]nc2c1CCc1cc(OC)ccc1-2 [Example 182]

IC50 (MAPKAPK2 (MK-2); read-out: MK-2 Avg. IC50): 2.33 µM
IC50 (MK-3): 48.1 µM
Structure (SMILES): COc1ccc(CCNCCCn2nc3c(c2C(=O)O)CCc2cnccc2-3)cc1OC [Example 100]

IC50 (MAPKAPK2 (MK-2); [3]): 188 µM
IC50 (MK-3; [4]): ≥ 200 µM
Structure (SMILES): O=C(O)c1[nH]nc2c1CCc1[nH]ncc1-2 [Example 45]

IC50 (MAPKAPK2 (MK-2); [5]): 82.2 µM
IC50 (MK-3; [6]): > 200 µM
Structure (SMILES): COc1cc2c(cc1-c1cccc([N+](=O)[O-])c1)-c1nn(CCNC(=O)OC(C)(C)C)c(C(=O)O)c1CC2 [Example 44]

IC50 (MAPKAPK2 (MK-2); [5]): > 200 µM
IC50 (MK-3; [6]): > 200 µM
Structure (SMILES): COc1cc2c(cc1OC)-c1n[nH]c(C(=O)NNc3ccc(S(N)(=O)=O)cc3)c1CC2 [Example 177]

IC50 (MAPKAPK2 (MK-2); [3]): ≥ 200 µM
IC50 (MK-3; [4]): 145 µM
Structure (SMILES): CCOCn1ncc2c1CCc1c-2n[nH]c1C(N)=O [Example 46]

IC50 (MAPKAPK2 (MK-2); [5]): > 200 µM
IC50 (MK-3; [6]): > 200 µM
Structure (SMILES): COC(=O)c1[nH]nc2c1CCc1cc(OC)c(Br)cc1-2 [Example 183]

IC50 (MAPKAPK2 (MK-2); [5]): 184 µM
IC50 (MK-3; [6]): > 200 µM
Structure (SMILES): O=C(NCCO)c1[nH]nc2c1CCc1cc(O)ccc1-2 [Example 73]

IC50 (MAPKAPK2 (MK-2); [5]): > 200 µM
IC50 (MK-3; [6]): > 200 µM
Structure (SMILES): COC(=O)c1nn(-c2ccc(S(C)(=O)=O)cc2)c2c1CCc1cc(OC)ccc1-2 [Example 164]

IC50 (MAPKAPK2 (MK-2); [3]): ≥ 200 µM
IC50 (MK-3; [4]): ≥ 200 µM
Structure (SMILES): CCOC(=O)c1[nH]nc2c1CCc1c-2cnn1CCO [Example 69]
